Data as given in patent US8211895B2, “Capped pyrazinoylguanidine sodium channel blockers” (Parion Sciences, Inc., priority 2005, dated 2012).

System: not given
Experiment: not given
Settings: not given
With `NC(=O)CN(CCOc1ccc(CCCCNC(N)=NC(=O)c2nc(Cl)c(N)nc2N)cc1)CC(N)=O` [ALB 28062, 2-{Carbamoylmethyl-[2-(4-{4-[N′-(3,5-diamino-6-chloropyrazine-2-carbonyl)-guanidino]butyl}phenoxy)ethyl]amino}acetamide] the melting point was 98 to 100 °C (dec.). In the case of `COC(=O)CC(CC(=O)OC)NCCOc1ccc(CCCCNC(N)=NC(=O)c2nc(Cl)c(N)nc2N)cc1` [ALB 28588, 3-[2-(4-{4-[N′-(3,5-Diamino-6-chloropyrazine-2-carbonyl)guanidino]butyl}phenoxy)ethylamino]pentanedioic acid dimethyl ester], the melting point is reported as 84 to 88 °C. In the case of `NC(=O)CNCCOc1ccc(CCCCNC(N)=NC(=O)c2nc(Cl)c(N)nc2N)cc1` [ALB 28683, 2-[2-(4-{4-[N′-(3,5-Diamino-6-chloropyrazine-2-carbonyl)guanidino]butyl}-phenoxy)ethylamino]acetamide], the melting point is reported as 92 to 94 °C (dec.). For `NC(=NC(=O)c1nc(Cl)c(N)nc1N)NCCCCc1ccc(OCCNCC(=O)O)cc1` [ALB 28897, [2-(4-{4-[N′-(3,5-Diamino-6-chloropyrazine-2-carbonyl)guanidino]butyl}-phenoxy)ethylamino]acetic acid], the melting point was 110 to 112 °C (dec.).

System: airway epithelial sodium currents in canine bronchial epithelia (ENaC)
Experiment: In vitro measure of sodium channel blocking activity (short circuit current, Ussing chambers)
Format: cell-based
Settings: potency in canine bronchial epithelia, reported as fold-enhancement relative to amiloride
Procedure: In Vitro Measure of Sodium Channel Blocking Activity and Reversibility One assay used to assess mechanism of action and/or potency of the compounds of the present invention involves the determination of lumenal drug inhibition of airway epithelial sodium currents measured under short circuit current (ISC) using airway epithelial monolayers mounted in Ussing chambers. Cells obtained from freshly excised human, dog, sheep or rodent airways are seeded onto porous 0.4 micron Snapwell™ Inserts (CoStar), cultured at air-liquid interface (ALI) conditions in hormonally defined media, and assayed for sodium transport activity (ISC) while bathed in Krebs Bicarbonate Ringer (KBR) in Using chambers. All test drug additions are to the lumenal bath with half-log dose addition protocols (from 1×10^−11 M to 3×10^−5 M), and the cumulative change in ISC (inhibition) recorded. All drugs are prepared in dimethyl sulfoxide as stock solutions at a concentration of 1×10^−2 M and stored at −20° C. Eight preparations are typically run in parallel; two preparations per run incorporate amiloride and/or benzamil as positive controls. After the maximal concentration ([…]) is administered, the lumenal bath is exchanged three times with fresh drug-free KBR solution, and the resultant ISC measured after each wash for approximately 5 minutes in duration. Reversibility is defined as the percent return to the baseline value for sodium current after the third wash. All data from the voltage clamps are collected via a computer interface and analyzed off-line. Dose-effect relationships for all compounds are considered and analyzed by the Prism 3.0 program. IC50 values, maximal effective concentrations, and reversibility are calculated and compared to amiloride and benzamil as positive controls. […] The results for the compounds of the present invention are reported as fold-enhancement values relative to amiloride.
In the case of `N=C(NCCCCc1ccc(OCCN(CC(N)=O)CC(N)=O)cc1)NC(=O)c1nc(Cl)c(N)nc1N` [Compound 1], the “Fold Amiloride” value is reported as 77. For `N=C(NCCCCc1ccc(OCCN(CC(=O)O)CC(=O)O)cc1)NC(=O)c1nc(Cl)c(N)nc1N` [Compound 2], the “Fold Amiloride” value was 16. With `N=C(NCCCCc1ccc(OCCNCC(N)=O)cc1)NC(=O)c1nc(Cl)c(N)nc1N` [Compound 3] the “Fold Amiloride” value was 10. In the case of `COC(=O)CC(CC(=O)OC)NCCOc1ccc(CCCCNC(=N)NC(=O)c2nc(Cl)c(N)nc2N)cc1` [Compound 4], the “Fold Amiloride” value is reported as 81.
